Laboratory results: patent US20240277744A1, “TREATMENT OF CHEMORESISTANT CANCER CELLS” (Cornell University, priority 2023, published 2024)

Key:
DU145 cell line = assay: Flow cytometry of TRA-1-81+ cells; format: cell-based; settings: DU145, 25 nM CYM, 5 days
Description: (§1) Flow cytometry. TRA-1-60 PerCP-efluor710 (eBioscience, 1:50) and TRA-1-81 PE (eBioscience, 1:100) were used. Cells were blocked with 5% FBS plus mouse IgM isotype control antibody (eBioscience, 1:100) at room temperature for 15 min, then stained on ice for 30 min. Stained cells were resuspended in PBS containing 300 nM DAPI and proceeded to analysis or sorting. Cell apoptosis was analyzed with FITC-AnnexinV labeling reagent (BD). Flow cytometry analysis was carried out on BD FACS Calibur with FlowJo 9.8 software. Sorting was performed with FACSVantage SE (Becton Dickinson).

HCT116 cell line = assay: Flow cytometry of TRA-1-81+ cells; format: cell-based; settings: HCT-116, 25 nM CYM, 5 days
Description: as §1

TRA-1-81+ SW1990 cells = assay: Flow cytometry of TRA-1-81+ cells; format: cell-based
Description: as §1

TRA-1-81+ SW1990GR cells = assay: Flow cytometry of TRA-1-81+ cells; format: cell-based
Description: as §1

SW1990 xenograft tumors = assay: Luciferase-labeled SW1990 xenograft in nude mice; format: in vivo
Description: CYM suppresses TRA-1-60 expression and blocks tumor growth in vivo. Next it was sought to validate the effects of CYM in vivo, using a xenograft model with luciferase-labeled SW1990 cells propagated in nude mice. Tumor-harboring mice were separated into 4 groups and treated with PBS (control), 2 mg/kg CYM, 50 mg/kg GEM, or 2 mg/kg CYM plus 50 mg/kg GEM through intraperitoneal injections twice per week. Luciferase intensity was quantified twice per week and normalized with the value obtained from the starting day. […] Consistent with imaging, of the four groups, mice treated with GEM plus CYM generated xenograft tumors with the smallest size (FIG. 6C) and weight (FIG. 6D).
Tissue samples were fixed with 4% paraformaldehyde overnight at 4° C., washed with 70% ethanol and then embedded in paraffin. After De-paraffin and rehydration, antigen retrieval was preceded in hot antigen retrieving buffer with a normal-pressure steamer for 30 min. blocking was proceeded 1 hour at room temperature in PBS containing 1% horse serum. Primary antibody was stained overnight at 4° C. in PBS plus 0.5% Triton X-100 and 5% horse serum. Secondary antibody was incubated at room temperature for 1.5 hours.
Mouse Procedures. To assess in vivo effects of Cymarin (CYM), Luciferase-labelled SW1990 cells were transplanted to nude mice subcutaneously. Each mouse received four injections (5×10^5 cells/site). 12 days later, mice were randomly separated into 4 groups and treated with PBS (control), GEM (50 mg/kg bodyweight), CYM (2 mg/kg bodyweight) or GEM (50 mg/kg bodyweight) plus CYM (2 mg/kg bodyweight) twice weekly via intraperitoneal injection. Image acquisition was performed twice weekly with Xtreme Optical and X-ray small animal imaging system. Luciferin potassium salt (Regis), substrate of luciferase, was applied at 2 mg/25 g bodyweight in 150 μl PBS. Isoflurane (Henry Schein) was used for anesthesia during imaging.

SW1990 cells = assay: Growth curve / proliferation assay; format: cell-based; settings: SW1990, 50 nM CYM
Description: (§2) To quantify growth, Cells were seeded into 96-well plates (2000/well). After overnight incubation, medium with indicated drug was refreshed. Cell proliferation was quantified every 2 days using CellTiter 96® AQueous Non-Radioactive Cell Proliferation Assay (Promega).

SW1990GR cells [1] = assay: Growth curve / proliferation assay; format: cell-based; settings: 25 nM CYM
Description: as §2

SW1990GR cells [2] = assay: Cell viability (DAPI nuclei count, high content imaging); format: cell-based; settings: 72 h, CYM 0-500 nM, 3 days, read-out: IC50, viability
Description: To establish GR cell lines, cells were first cultured with 10 nM GEM till cell growth became stable. […] Once cell growth became stable in 100 nM GEM, cells were expanded in 100 nM GEM and used in assays.
Cell viability, colony formation, sphere formation and growth curve. To quantify viability, cells were plated into 96-well plates (6000/well) one night before treatment. […] After fixation, cell nuclei were stained with DAPI (Invitrogen). Plates were analyzed using MetaXpress High Content Image Acquisition and Analysis System (Molecular Devices).

CO[C@H]1C[C@H](O[C@H]2CC[C@]3(C=O)[C@H]4CC[C@]5(C)[C@@H](C6=CC(=O)OC6)CC[C@]5(O)[C@@H]4CC[C@]3(O)C2)O[C@H](C)[C@H]1O [CYM, Cymarin]
percentage of TRA-1-81+ cells (DU145 cell line): decreased | percentage of TRA-1-81+ cells (HCT116 cell line): decreased | IC50 (TRA-1-81+ SW1990 cells; Homo sapiens, SW1990, read-out: IC50, repression of TRA-1-81+ cells): 6.3 ± 2.2 nM | TRA-1-81+ cells in time course (TRA-1-81+ SW1990 cells; SW1990, 25 nM CYM): decrease of TRA-1-81^+ cells over time | percentage of TRA-1-81+ cells with or without acute GEM (TRA-1-81+ SW1990 cells; SW1990, 5 days, 25 nM CYM or 100 nM GEM plus 25 nM CYM): decreased the percentage of TRA-1-81^+ cells effectively regardless of GEM | TRA-1-81+ cells in time course (TRA-1-81+ SW1990GR cells; 25 nM CYM): decrease of TRA-1-81^+ cells over time | IC50 (TRA-1-81+ SW1990GR cells; flow cytometry, read-out: IC50, decrease of percentage of TRA-1-81+ cells): 5.1 ± 1.5 nM | tumor growth (luciferase intensity) (SW1990 xenograft tumors; 3 weeks, i.p. twice per week, GEM 50 mg/kg, CYM 2 mg/kg): grew more slowly | percentage of TRA-1-60+ cells in xenograft tumors (SW1990 xenograft tumors; CYM administration in GEM-treated tumors, immunofluorescence): ~13% | cell apoptosis in xenograft tumors (TUNEL+ cells) (SW1990 xenograft tumors; TUNEL assay): cell death increased | proliferation (SW1990 cells): significantly decreased the proliferation | proliferation (SW1990GR cells [1]): sufficient to block the proliferation | IC50 (SW1990GR cells [2]): 40.8 ± 3.1 nM
